For data set [1] the following is noted: cc_pd bond; 15-membered ring; Pd(dppf)Cl2/Cs2CO3; 1,4-dioxane/H2O 5:1; 127.0 mM; 90.0 °C.
The conditions of data set [2]: from C=Cc1nn(C2CCCCO2)c2ccc(-c3cnn(C)c3O[C@H](CC)CN(C)Cc3c(I)c(OCC)nn3CCO[Si](C)(C)C(C)(C)C)cc12; cc_pd bond; 15-membered ring; Pd(OAc)2/TBAC/NaHCO3; DMF; 97.8 mM; 80.0 °C; 1.0 h.
For data set [3] the following is noted: cc_pd bond.

Where two headings read alike, the source gives them in different places.

As to “2-[(17E)-5,15-dimethyl-21-tetrahydropyran-2-yl-7,10-dioxa-4,5,13,14,20,21-hexazapentacyclo[17.5.2.0^2,6.0^12,160.0^22,26]hexacosa-1(25),2(6),3,12(16),14,17,19,22(26),23-nonaen-13-yl]acetic acid”, the ring closure, yield after HPLC in data set [1] amounted to 30%.

In data set [2], `CCOc1nn(CCO[Si](C)(C)C(C)(C)C)c2c1C=Cc1nn(C3CCCCO3)c3ccc(cc13)-c1cnn(C)c1O[C@H](CC)CN(C)C2` (stereo partly shown) returned a ring closure, crude yield of 62%.

Take `CCOc1nn(CCO)c2c1/C=C/c1nn(C3CCCCO3)c3cc(F)c(cc13)-c1cnn(C)c1O[C@@H]1CCCN(C2)C1` (stereo partly shown): in data set [3] (from CCOc1nn(CCO)c(CN2CCC[C@@H](Oc3c(-c4cc5c(/C=C/B6OC(C)(C)C(C)(C)O6)nn(C6CCCCO6)c5cc4F)cnn3C)C2)c1I, 15-membered ring, CataCXium A Pd G3/K3PO4, dioxane, 112.0 mM, 90.0 °C, 2.0 h), the ring closure, isolated yield is 42%.

In data set [3] (from C=Cc1nn(C2CCCCO2)c2cc(F)c(-c3c(C)nn(C)c3O[C@@H](C)CN(Cc3c(I)c(OCC)nn3CCO[Si](C)(C)C(C)(C)C)C(C)C)cc12, 15-membered ring, Pd(OAc)2/TBAC/NaHCO3, DMF, 96.7 mM, 140.0 °C, 1.0 h), `CCOc1nn(CCO[Si](C)(C)C(C)(C)C)c2c1/C=C/c1nn(C3CCCCO3)c3cc(F)c(cc13)-c1c(C)nn(C)c1O[C@@H](C)CN(C(C)C)C2` (stereo partly shown) had a ring closure, isolated yield of 84%.

`Cn1ncc2c1OCCN1CC[C@@H](Oc3ccccc3/C=C/c3nn(C4CCCCO4)c4ccc-2cc34)C1=O` (stereo partly shown) had a ring closure, isolated yield in data set [3] (from Cn1ncc(-c2ccc3c(c2)c(/C=C/B2OC(C)(C)C(C)(C)O2)nn3C2CCCCO2)c1OCCN1CC[C@@H](Oc2ccccc2I)C1=O, 17-membered ring, XPhos Pd G4/K3PO4, DMA, 25.0 mM, 80.0 °C, 2.0 h) of 36%.

`Cc1nn(C)c2c1C=Cc1nn(C3CCCCO3)c3ccc(cc13)-c1cnn(C)c1OCCOC2` (stereo not shown) returned a ring closure, isolated yield in data set [3] (from Cc1nn(C)c(COCCOc2c(-c3ccc4c(c3)c(/C=C/B3OC(C)(C)C(C)(C)O3)nn4C3CCCCO3)cnn2C)c1I, 15-membered ring, Pd XPhos G4/K3PO4, DMA/H2O, 55.3 mM, 90.0 °C, 3.0 h) of 14.2%.

For `CCOC(=O)c1nn(C)c2c1-c1ccc3c(c1)c(nn3C1CCCCO1)/C=C/c1c(OCC)nn(CCO[Si](C)(C)C(C)(C)C)c1CN(CC)C[C@H](C)O2` (stereo partly shown), the ring closure, isolated yield in data set [3] (from ethyl 5-[(1S)-2-[[2-[2-[tert-butyl(dimethyl)silyl]oxyethyl]-5-ethoxy-4-iodo-pyrazol-3-yl]methyl-ethyl-amino]-1-methyl-ethoxy]-1-methyl-4-(1-tetrahydropyran-2-yl-3-vinyl-indazol-5-yl) pyrazole-3-carboxylate, 15-membered ring, Pd(OAc)2/TBAC/NaHCO3, DMF, 67.4 mM, 120.0 °C) was found to be 77%.

In the case of `Cn1ncc2c1OCCN1CC[C@@H](Oc3cc(Cl)ccc3C=Cc3nn(C4CCCCO4)c4ccc-2cc34)C1=O` (stereo partly shown), the ring closure, isolated yield in data set [3] (from Cn1ncc(-c2ccc3c(c2)c(/C=C/B2OC(C)(C)C(C)(C)O2)nn3C2CCCCO2)c1OCCN1CC[C@@H](Oc2cc(Br)ccc2I)C1=O, 17-membered ring, Pd(dppf)Cl2.CH2Cl2/K2CO3, dioxane/H2O 5:1, 19.4 mM, 90.0 °C, 2.0 h) turned out to be 38%.

Consider `COC(=O)[C@H]1CN(C)Cc2c(c(OC(C)C)nn2CCO[Si](C)(C)C(C)(C)C)/C=C/c2nn(C3CCCCO3)c3ccc(cc23)-c2cnn(C)c2O1` (stereo partly shown), for which, in data set [3] (from C=Cc1nn(C2CCCCO2)c2ccc(-c3cnn(C)c3O[C@H](CN(C)Cc3c(I)c(OC(C)C)nn3CCO[Si](C)(C)C(C)(C)C)C(=O)OC)cc12, 15-membered ring, Pd(OAc)2/TBAC/TEA, DMF, 11.6 mM, 100.0 °C, 2.0 h), the ring closure, isolated yield was determined as 47%.

Take `Cc1n[nH]c2c1/C=C/c1nn(C3CCCCO3)c3ccc(cc13)-c1cnn(C)c1CN(C(=O)OC(C)(C)C)CCO2` (stereo not shown): in data set [3] (from tert-butyl N-[2-[(4-iodo-3-methyl-1H-pyrazol-5-yl)oxy]ethyl]-N-[[2-methyl-4-[1-tetrahydropyran-2-yl-3-[(E)-2-(4,4,5,5-tetramethyl-1,3,2-dioxaborolan-2-yl)vinyl]indazol-5-yl]pyrazol-3-yl]methylicarbamate, 15-membered ring), the ring closure, isolated yield turned out to be 54%.

The values are drawn from patent US20250353864A1, “INDAZOLE CONTAINING MACROCYCLES AND THEIR USE” (BLOSSOMHILL THERAPEUTICS, INC., priority 2022, published 2025).
